Measurements as given in patent US20030134832A1, “Novel tibolone formulations” (priority 2001, published 2003).

Row | Compound | pH of 1% w/v aqueous solution
1 | O=C([O-])CC(O)(CC(=O)[O-])C(=O)[O-].[Na+].[Na+].[Na+] [Sodium Citrate, sodium citrate] | pH 8.75
2 | O=C([O-])O.[Na+] [Sodium Bicarbonate, sodium bicarbonate] | pH 8.2
